Legend:
Assay type in all cases: cell-based, human
CD34+ fibrocytes = assay: MHC II, CD80, CD86, PD-L1 expression in cultured fibrocytes (RT-qPCR, flow cytometry)
Excerpt: Fibrocyte and T cell isolation and cultivation. Peripheral blood mononuclear cells (PBMCs) were obtained from the venous circulation of clinic patients with GD, TAO or from healthy donors after obtaining informed consent. PBMCs were also obtained from Red Cross donor plasmapheresis filters. They were isolated by Ficoll-Histopaque (Sigma-Aldrich, St. Louis, MO) density gradient centrifugation. Fibrocytes were cultivated as described (Bucala, R, et al., (1994) Mol Med 1, 71-81, incorporated herein by reference in its entirety) except that culture substrata remained uncoated with fibronectin, as previously described (Douglas, R. S., et al. (2010) The Journal of clinical endocrinology and metabolism 95, 430-438). Isolated PBMCs (1×10^6-1×107) were inoculated in six-well plates covered with DMEM containing 10% FBS and incubated in 10-14 days. Adherent monolayers (<5% of the starting population) were washed with PBS and detached using accutase (Millipore) treatment, or mechanical scraping following accutase treatment. Culture purity was routinely confirmed by FACS analysis to be >90% fibrocytes by confirming the CD31^−CD45^+CD34^+CXCR4^+Col I^+TSFR^high phenotype.
Invariably, a small population of tightly adherent T cells were found in the fibrocyte cultures, consistent with the previous findings. Culture viability was routinely verified to be >90%. CD4^+ T cells were enriched using the CD4 isolation cocktail (Cat #0.130-096-533, Miltenyi Biotec, San Diego, CA) followed by negative selection using a magnetic column (Cat #0.130-042-401) according to manufacturer's protocol. Fibrocytes and isolated T cells were cultured and remained untreated or were incubated with human IgG isotype control (5 μg/ml) or teprotumumab (50 μg/mL) for 7 to 9 days. Single cell suspensions were stained with anti-human CD4, CD3, CD34, MHC-2, CD80, CD86, and PD-L1 (BD Biosciences) for 30 min, rinsed and fixed with CytoPerm/CytoFix (BD). They were then stained with anti-human INFγ and IL-17A for 20 min, rinsed, and subjected to the flow cytometry analysis. Gated CD34^+CXCR4^+ fibrocytes and CD4^+CD3^+ T cells were analyzed using quadrant settings based on negative isotype staining.
In vitro studies of CD34^+ fibrocytes and T cells PBMC and GD-OF monolayers were treated in vitro with human IgG isotype control (5 μg/ml), teprotumumab (50 μg/mL), H7 (5 μg/mL), linsitinib (1 μM), bTSH (5 mIU/mL), M22 (1 μg/mL), or IGF-1 (10 nM) for the intervals indicted in the figure legends in a 37° C., 5% CO2, humidified incubator until confluent. Brefeldin A (0.66 μl/ml), (Golgi Stop™, BD Biosciences), phorbol 12-myristate 13-acetate (PMA) (50 ng/ml) and ionomycin (1 μg/mL) were added for 5 h. Cells were rinsed with flow cytometry buffer (1×PBS, 0.5% BSA, 0.1% sodium azide) and stained with the relevant monoclonal antibodies.
(§1) Real-time PCR Confluent fibrocyte and GD-OF cultures were incubated with bTSH (5 mIU/mL), teprotumumab (50 μg/mL) or linsitinib (1 μM) for the time intervals indicated, washed with PBS and RNA was extracted with the Aurum Total RNA Mini Kit (cat. #732-6820, Bio-Rad, Hercules, CA). Cellular RNA (2 μg) was reverse transcribed using QuantiTect Reverse Transcription kit (cat. #205314, Qiagen (Germantown, MD) and real-time PCR was performed using an Applied Biosystems instrument with QuantiTect SYBR Green PCR kit (cat. no. 204143; Qiagen, Frederick, MD). Primer sequences were as follows.

fibrocytes [1] = assay: IL-23p19 and IL-12p35 mRNA expression, real-time PCR; conditions: teprotumumab 50 μg/ml or linsitinib 1 μM, 7-9 d
Description: (§2) FIGS. 10A-10F are graphs showing the divergent effect of teprotumumab on bTSH induced IL-23p19 and IL-12p35 expression on fibrocytes and GD-OF. Rinsed fibrocyte and GD-OF monolayers were incubated with or without 50 μg/ml teprotumumab (FIGS. 10A and 10B) or 1 μM linsitinib (FIGS. 10C and 10D) and human Isotype IgG for 7-9 d, and bTSH (5 mIU/mL) was added for 6 h. Harvested RNA was reverse transcribed and isolated cDNA was subjected to quantitative real-time PCR for IL-23p19 and IL-12p35 mRNA levels. Values were normalized to their respective GAPDH levels and are expressed as the mean±SD of three independent determinations. Experiments were repeated three times. FIGS. 10E and 10F are graphs showing the levels of IL-23 protein when rinsed fibrocyte and GD-OF monolayers were incubated with or without 50 μg/ml teprotumumab. **, p<0.01; ***. P<0.001.
as §1

GD-OF [2] = assay: as above; conditions: teprotumumab 50 μg/ml or linsitinib 1 μM, 7-9 d
Description: as §2
FIGS. 15A-15C are dose-response curves of teprotumumab effects on IL-6 expression/induction by bTSH (FIG. 15A); HAS2 expression/induction by bTSH (FIG. 15B); IL-12p35 expression/induction by bTSH (FIG. 15C). Following indicated treatments, cellular RNA was harvest from rinsed GD-OF cell layers, reversed transcribed and subjected to real-time PCR. Values were normalized to their respective GAPDH levels.
Graves' disease-orbital fibroblast (GD-OF) preparation and cultivtion GD-OF were isolated from orbital adipose/connective tissues removed during surgical orbital decompression surgery, as described ((Smith, T. J., et al., (2002) The Journal of clinical endocrinology and metabolism 87, 385-392). While the fraction of CD34^+ OF comprising GD-OF strains vary somewhat, the ratios of CD34^+/CD34^− OF are usually 50:50 in the early passages utilized in these studies (passages 2-11). Pure CD34^+ OF and CD34^− OF subsets were generated by staining for 30 m at 4° C. with fluorescein isothiocyanate-conjugated […] CD34 or its isotype control followed by cytometric cell sorting using a FACSAria III (BD Biosciences) instrument. Cells were sorted under sterile conditions into either CD34^+ OF, and CD34 OF subsets which were then re-cultured and treated without or with bTSH (5 mU/mL) or the other test compounds, as indicated, for 6 hrs, as indicated.
as §1

GD-OF [3] = assay: HAS1 and HAS2 mRNA, real-time PCR; conditions: teprotumumab 50 μg/ml or linsitinib 1 μM, 7-9 d
Description: (§3) FIGS. 13A-13B are graphs showing the effect of teprotumumab on bTSH induced hyaluronan (HA) production in GD-OF (FIG. 13A) and fibrocytes (FIG. 13B). GD-OF were treated with or without teprotumumab (50 μg/ml) or human Isotype IgG (5 μg/ml) for 7-9 d and stimulated with bTSH (5 mIU/mL) for graded intervals indicated along the abscissa for 0 to 96h. Media were collected and subjected to HA ELISA. Values were normalized to respective cell layer protein levels and expressed as the mean±SD of three independent determinations. Experiments were repeated three times. FIGS. 13C-13F are graphs showing the divergent pattern of hyaluronan synthase (HAS) isoenzyme induction by bTSH in fibrocytes versus GD-OF and effects of teprotumumab (FIGS. 13C and 13D) and linsitinib (FIGS. 13E and 13F). Confluent monolayers of GD-OF and fibrocytes remained untreated or received teprotumumab (50 μg/ml) or linsitinib (1 μM) and human Isotype IgG for 7-9 d. Some cultures were treated with bTSH (5 mIU/mL) for 6h. Cellular RNA was harvested mRNA was reverse transcribed, and cDNA subjected to quantitative real-time PCR for HAS1 and HAS2. Values were normalized to their respective GAPDH levels and are expressed as the mean±SD of three independent determinations. Experiments were repeated three times. *, P<0.05; **, p<0.01; ***. P<0.001.
as §1

fibrocytes [4] = assay: HAS1 and HAS2 mRNA, real-time PCR; conditions: teprotumumab 50 μg/ml or linsitinib 1 μM, 7-9 d
Description: as §3, §1

COc1ccc(C2Nc3ccccc3C(=O)N2Cc2ccco2)cc1COc1c(C)cc(NC(C)=O)cc1C (stereo not drawn) [ML224]
effect on MHC II, CD80, CD86, PD-L1 expression, teprotumumab compared with TSHR inhibitor ML224 (CD34+ fibrocytes; 9 d, single agents and in combination): effective

C[C@]1(O)C[C@@H](c2nc(-c3ccc4ccc(-c5ccccc5)nc4c3)c3c(N)nccn32)C1 [linsitinib]
induction of MHC II, CD80, CD86, PD-L1 surface proteins (CD34+ fibrocytes; bTSH-treated fibrocytes): blocked | induction of MHC II, CD80, CD86, PD-L1 mRNA by bTSH and M22 (CD34+ fibrocytes; teprotumumab 50 μg/mL, 1H7 5 μg/mL, linsitinib 1 μM): blocked | IL-12p35 expression, basal and induction by bTSH (fibrocytes [1]): increasing | IL-23p19 expression, basal and induction by bTSH (fibrocytes [1]): decreasing | IL-12p35 expression, basal and induction by bTSH (GD-OF [2]): increasing | IL-23p19 expression, basal and induction by bTSH (GD-OF [2]): decreasing | HAS2 expression, single agent or in combination with bTSH (GD-OF [3]): nearly identical | basal and bTSH-provoked expression of HAS1 (GD-OF [3]): nearly identical | HAS2 expression, single agent or in combination with bTSH (fibrocytes [4]): nearly identical | basal and bTSH-provoked expression of HAS1 (fibrocytes [4]): nearly identical

rhIGF-1: Recombinant Human IGF-1 (R & D systems)
induction of MHC II, CD80, CD86, PD-L1 surface proteins by the agent itself (CD34+ fibrocytes; M22 1 μg/mL (peak at 6 d), IGF-1 10 nM, compared with bTSH): considerably less robust

From US20250034264A1, “REGULATING T CELL IMMUNE RESPONSE THROUGH IGF-I RECEPTOR (IGF-1R)” (The Regents of the University of Michigan, priority 2021, published 2025)
